Laboratory results published in doi:10.1101/2021.10.13.464265v1 (biorxiv, 2021).
Where two headings read alike, the source gives them in different places.

Experiments:
[1] = tested on: E. coli csrA::kanB pBAD-nahK; experiment: microbe, parasite or virus in culture; set-up: species or system E. coli MG1655 csrA::kanB; conditions: Escherichia coli, read-out: pBAD-nahK [Ara] = 50 mg/L
[2] = tested on: E. coli csrA::kanB pBAD-nahKm; experiment: microbe, parasite or virus in culture; set-up: species or system E. coli MG1655 csrA::kanB; conditions: Escherichia coli, read-out: pBAD-nahKm [Ara] = 50 mg/L
[3] = tested on: E. coli csrA::kanB pBAD-nahK; experiment: microbe, parasite or virus in culture; set-up: species or system E. coli MG1655 csrA::kanB; conditions: Escherichia coli, read-out: pBAD-nahK [Ara] = 0 mg/L
[4] = tested on: E. coli csrA::kanB; experiment: microbe, parasite or virus in culture; set-up: species or system E. coli MG1655 csrA::kanB; conditions: Escherichia coli, read-out: csrA::kanB [Ara] = 0 mg/L
[5] = tested on: E. coli csrA::kanB pBAD-nahK; experiment: microbe, parasite or virus in culture; set-up: species or system E. coli MG1655 csrA::kanB; conditions: Escherichia coli, read-out: pBAD-nahK [Ara] = 50 mg/L, DTT
[6] = target: T1, PgaCDm (PgaC V227L PgaD N75D/K76E) (Escherichia coli, UniProt P75905, V227L); experiment: WGA-HRP dot blot of PNAG, densitometry; assay type: biochemical
T1 sequence (P75905 1-441 V227L): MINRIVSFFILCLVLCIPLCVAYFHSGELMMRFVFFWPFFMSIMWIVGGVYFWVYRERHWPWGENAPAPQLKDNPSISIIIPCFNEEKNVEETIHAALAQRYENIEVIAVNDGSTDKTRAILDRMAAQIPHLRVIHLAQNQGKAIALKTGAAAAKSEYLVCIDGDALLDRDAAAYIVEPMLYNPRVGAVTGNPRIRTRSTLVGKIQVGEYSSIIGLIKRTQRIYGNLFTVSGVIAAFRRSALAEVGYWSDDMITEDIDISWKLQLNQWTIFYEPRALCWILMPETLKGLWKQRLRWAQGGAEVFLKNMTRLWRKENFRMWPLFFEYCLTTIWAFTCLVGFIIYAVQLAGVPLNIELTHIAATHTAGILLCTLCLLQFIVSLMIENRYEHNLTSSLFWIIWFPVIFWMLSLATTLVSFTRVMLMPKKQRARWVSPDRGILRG
T1 sequence (P69432 1-137 N75D/K76E partner): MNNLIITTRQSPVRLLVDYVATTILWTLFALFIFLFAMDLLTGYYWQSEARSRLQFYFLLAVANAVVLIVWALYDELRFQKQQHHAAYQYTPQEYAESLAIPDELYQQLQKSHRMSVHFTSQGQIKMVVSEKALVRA

| Structure (SMILES) | IC50 [1] [µM] | IC50 [2] [µM] | IC50 [3] [µM] | IC50 [6] [µM] | other results |
| --- | --- | --- | --- | --- | --- |
| CC(=O)N[C@H]1C(O)O[C@H](CF)[C@@H](O)[C@@H]1O (mixture of isomers) [1-F, 6-fluoroGlcNAc] | 13 ± 3 | > 2000 | > 2000 | – | – |
| CC(=O)N[C@H]1C(O)O[C@H](C)[C@@H](O)[C@@H]1O (mixture of isomers) [1-H, 6-deoxyGlcNAc] | 8 ± 2 | 500 ± 100 | 330 ± 10 | – | IC50 [4]: 530 ± 30 µM |
| CC(=O)NC1C(O)OC(CN=[N+]=[N-])C(O)C1O (centres unmarked) [1-N3, 6-azidoGlcNAc] | 2700 ± 400 | > 5000 | > 5000 | – | – |
| CC(=O)NC1C(O)OC(CN)C(O)C1O (centres unmarked) [1-NH2, 6-aminoGlcNAc] | 150 ± 60 | > 2000 | > 2000 | – | – |
| CC(=O)NC1C(O)OC(CS)C(O)C1O (centres unmarked) [1-SH, 6-thioGlcNAc] | 130 | > 2000 | > 2000 | – | IC50 [5]: 64 ± 2 µM |
| CC(=O)N[C@H]1[C@@H](OP(=O)(O)OP(=O)(O)OC[C@H]2O[C@@H](n3ccc(=O)[nH]c3=O)[C@H](O)[C@@H]2O)O[C@H](CF)[C@@H](O)[C@@H]1O [2-F, UDP-6-fluoroGlcNAc] | – | – | – | 150 ± 10 | – |
| CC(=O)N[C@H]1[C@@H](OP(=O)(O)OP(=O)(O)OC[C@H]2O[C@@H](n3ccc(=O)[nH]c3=O)[C@H](O)[C@@H]2O)O[C@H](C)[C@@H](O)[C@@H]1O [2-H, UDP-6-deoxyGlcNAc] | – | – | – | 30 | – |
| CC(=O)N[C@H]1[C@@H](OP(=O)(O)OP(=O)(O)OC[C@H]2O[C@@H](n3ccc(=O)[nH]c3=O)[C@H](O)[C@@H]2O)O[C@H](CN=[N+]=[N-])[C@@H](O)[C@@H]1O [2-N3, 6-azido analogue] | – | – | – | > 10000 | – |
| CC(=O)N[C@H]1[C@@H](OP(=O)(O)OP(=O)(O)OC[C@H]2O[C@@H](n3ccc(=O)[nH]c3=O)[C@H](O)[C@@H]2O)O[C@H](CN)[C@@H](O)[C@@H]1O [2-NH2, 6-amino derivative] | – | – | – | 480 ± 60 | – |
| CC(=O)N[C@H]1[C@@H](OP(=O)(O)OP(=O)(O)OC[C@H]2O[C@@H](n3ccc(=O)[nH]c3=O)[C@H](O)[C@@H]2O)O[C@H](CS)[C@@H](O)[C@@H]1O [2-SH, UDP-6-thioGlcNAc] | – | – | – | 60 ± 20 | – |
| O=c1ccn([C@@H]2O[C@H](COP(=O)(O)OP(=O)(O)O)[C@@H](O)[C@H]2O)c(=O)[nH]1 [UDP] | – | – | – | 2700 ± 900 | – |
